Values after ≈ are worked out from the molar mass of the structure shown. Where two headings read alike, the source gives them in different places. Numbered stars: 1 amine (or outer) side, 2 acyl side, 3 side chain; on linkers, the order of the positions; unused ones are H or OH. Square brackets hold non-standard residues; d marks the D form. Peptide text beside a SMILES is read from it. X19 = C[C@H](CCN1CCCC(C(F)(F)F)C1)[C@@H](O)[C@H](C(=O)[*:2])N(C)[*:1]; X30 = C[C@H](CCN(C)Cc1nnn[nH]1)[C@@H](O)[C@H](C(=O)[*:2])N(C)[*:1]; X17 = C[C@H](CCN(C)CCc1ccccn1)[C@@H](O)[C@H](C(=O)[*:2])N(C)[*:1]; X12 = C[C@H](CCN(C)Cc1ccncc1)[C@@H](O)[C@H](C(=O)[*:2])N(C)[*:1]; X24 = C[C@H](CCN(C)CC1COCCO1)[C@@H](O)[C@H](C(=O)[*:2])N(C)[*:1]; X7 = C[C@H](CCN(C)Cc1ccnn1C)[C@@H](O)[C@H](C(=O)[*:2])N(C)[*:1]; X34 = C[C@H](CCN1CCN(C)CC1)[C@@H](O)[C@H](C(=O)[*:2])N(C)[*:1]; d(aThr) = C[C@@H](O)[C@@H](N)C(=O)O; NMeL = CN[C@@H](CC(C)C)C(=O)O; dNMeL = CN[C@H](CC(C)C)C(=O)O; dNMeV = CN[C@@H](C(=O)O)C(C)C; Hiv = CC(C)[C@H](O)C(=O)O; Sar = CNCC(=O)O
Key:
[1] = Water solubility assay (pH 7.8 buffer); assay type: physicochemical
Experimental: ***Water Solubility Assay (Measured in pH 7.8 Buffer)
The onset of precipitation, if it occurred, was detected by an increase in absorbance at 650 nm.
Assay Buffer: 35 mM HEPES pH 7.8
Stock solutions of Control and Test Compounds: 10 mM in 100% DMSO
10 mM stock solutions of control and test compounds were prepared in 100% DMSO. A series of dilutions were prepared from the stock in DMSO so that the final concentrations in the assay were 0, 3.33, 10, 25, 50, 75 and 100 μM and DMSO was limited to 1%.
Assay buffer (247.5 μl) was placed into flat bottomed transparent 96-well plate. For blank samples DMSO (2.5 μl) was added. For test and control samples 2.5 μl of the appropriate DMSO dilution stocks were added to the appropriate well. All test and control compounds were performed in triplicate.
The plates were sealed with adhesive plate seal and shaken at 250 rpm at 25° C. for 18 h on a plate shaker.
After incubation the plate seals were taken off and any bubbles observed in wells removed. The plates were read on a SpectraMaxM5 with a 5 s pre-shake at 650 nm.
Data files were transferred to the appropriate worksheet and the solubility range of the compounds was calculated from the data.
The values shown in the tables indicate the concentration in μM (micromolar) at which the compound remains in solution.

cyclophilin A (Cyp A) = molecular target: T1, cyclophilin A (Cyp A) (Homo sapiens, UniProt P62937); assay: Protease-free PPIase assay, cyclophilin A; assay type: biochemical
T1 construct: purchased Sigma C3805
Experimental: (§1) The protease-free PPIase assay measures the rate of cis to trans conversion of a peptide substrate catalyzed by the enzymes cyclophilin A and cyclophilin D. Addition of a cyclophilin inhibitor (e.g., a test compound) slows the catalyzed rate and a Ki value is obtained. […] 35 mM HEPES pH 7.8, filtered through a 0.2 μm filter. 50 μM DTT was added prior to use each day and then the buffer was stored on ice. Human recombinant cyclophilin A (Cyp A) (Sigma C3805) enzyme was diluted to 1 μM with enzyme dilution buffer (20 mM HEPES pH 7.8, 40% glycerol, 50 μM DTT and 1 μM BSA) and stored at -20° C. Succinimide-[…]) (from Bachem AG, L-1400), 20 mg/ml prepared in 0.5 M LiCl in trifluoroethanol. All readings were taken with an Agilent 8453 Spectrophotometer which consists of a cuvette holder, stirrer and chiller to maintain a stirred cuvette temperature of 10.0±0.1° C. The temperature is monitored by the use of temperature probe. […] The inhibitor was diluted in 100% DMSO, and then added to the assay to a maximum final concentration of 0.5% DMSO in the assay. A blank spectrum was obtained, then 3 μL of enzyme was added (2 nM final concentration) and then 3 μL substrate (60 μM final concentration) added. The absorbance was measured at 330 nm for 300 s or 500 s for blank runs (NOTE: the substrate must be added in one quick injection and the measurements started immediately to minimize mixing errors). A first order rate equation was fitted to the absorbance data, for each concentration of inhibitor, to obtain the rate constant (the first 10 to 15 seconds were excluded as mixing causes errors in this portion of curve). The catalytic rate was calculated from the enzymatic rate constant minus the background rate constant. An exponential curve was generated using the catalytic rate constants versus the inhibitor concentration to obtain the Ki value for the inhibitor. The Ki value is indicative of the binding affinity between the test compound and cyclophilin A or cyclophilin D.

cyclophilin D (Cyp D) = cyclophilin D (Cyp D) (Homo sapiens, UniProt P30405); assay: Protease-free PPIase assay, cyclophilin D; assay type: biochemical
Experimental: as §1, with “ice.” for “ice. Human recombinant cyclophilin A (Cyp A) (Sigma C3805) enzyme was diluted to 1 μM with enzyme dilution buffer (20 mM HEPES pH 7.8, 40% glycerol, 50 μM DTT and 1 μM BSA) and stored at -20° C.”

[2] = 35 mM HEPES buffer, 35 mM HEPES pH 7.8, 1% DMSO, 25° C., 18 h, concentration at which compound remains in solution, read-out: Solubility
[3] = protease-free PPIase assay, class symbols, read-out: CypA Ki
[4] = protease-free PPIase assay, class symbols, read-out: CypD Ki

T1 sequence (P62937 whole entry): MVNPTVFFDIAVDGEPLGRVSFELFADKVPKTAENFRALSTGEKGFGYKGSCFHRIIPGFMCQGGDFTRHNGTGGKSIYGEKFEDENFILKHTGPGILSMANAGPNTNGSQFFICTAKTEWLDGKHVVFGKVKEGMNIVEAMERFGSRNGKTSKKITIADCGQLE
cyclophilin D (Cyp D), sequence (P30405 30-207): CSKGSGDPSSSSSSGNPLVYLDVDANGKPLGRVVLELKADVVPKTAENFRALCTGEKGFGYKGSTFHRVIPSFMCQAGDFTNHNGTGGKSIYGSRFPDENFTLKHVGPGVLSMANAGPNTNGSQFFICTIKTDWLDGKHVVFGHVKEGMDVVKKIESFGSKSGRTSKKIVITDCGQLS

SMILES | solubility at 18 h ([1]; pH 7.8) | Ki (cyclophilin A (Cyp A)) | Ki (cyclophilin D (Cyp D)) | solubility at 18 h [1, 2] | Ki (cyclophilin A (Cyp A); [3]) | Ki (cyclophilin D (Cyp D); [4])
CC(C)C[C@@H]1C(=O)N[C@H](CC(C)C)C(=O)N(C)[C@H](C(C)C)C(=O)N(C)[C@H]([C@H](O)[C@H](C)CCN(C)Cc2ccncc2)C(=O)N[C@H]([C@@H](C)O)C(=O)N(C)CC(=O)N(C)[C@@H](CC(C)C)C(=O)N[C@H](CC(C)C)C(=O)N(C)[C@H](CC(C)C)C(=O)N[C@H](C)C(=O)O[C@@H](C(C)C)C(=O)N1C [Example 3, cyclo-[(3R,4R,5S)-4-(hydroxy)-3-methyl-5-(methylamino)-1-N-(methyl-pyridin-4-ylmethyl-amino)-hexanoic acid-Thr-Sar-MeLeu-Leu-MeLeu-Ala-D-Hiv-MeLeu-Leu-MeVal]] (cyclo([Hiv][dNMeL][dL][dNMeV][X12][d(aThr)][Sar][NMeL][dL][dNMeL][dA])) | – | – | – | 50 to 75 µM (≈ 67.1 to 101 µg/mL) | 1 to 25 nM | 1 to 25 nM
CC(C)C[C@@H]1C(=O)N[C@H](CC(C)C)C(=O)N(C)[C@H](C(C)C)C(=O)N(C)[C@H]([C@H](O)[C@H](C)CCN(C)CCc2ccccn2)C(=O)N[C@H]([C@@H](C)O)C(=O)N(C)CC(=O)N(C)[C@@H](CC(C)C)C(=O)N[C@H](CC(C)C)C(=O)N(C)[C@H](CC(C)C)C(=O)N[C@H](C)C(=O)O[C@@H](C(C)C)C(=O)N1C [Example 4, cyclo-{(3R,4R,5S)-4-(hydroxy)-3-methyl-5-(methylamino)-1-N-[methyl-2-(pyridin-2-yl)-ethyl-amino]-hexanoic acid-Thr-Sar-MeLeu-Leu-MeLeu-Ala-D-Hiv-MeLeu-Leu-MeVal}] (cyclo([Hiv][dNMeL][dL][dNMeV][X17][d(aThr)][Sar][NMeL][dL][dNMeL][dA])) | – | – | – | 25 to 50 µM (≈ 33.9 to 67.8 µg/mL) | 1 to 25 nM | 1 to 25 nM
CC(C)C[C@@H]1C(=O)N[C@H](CC(C)C)C(=O)N(C)[C@H](C(C)C)C(=O)N(C)[C@H]([C@H](O)[C@H](C)CCN(C)Cc2ccnn2C)C(=O)N[C@H]([C@@H](C)O)C(=O)N(C)CC(=O)N(C)[C@@H](CC(C)C)C(=O)N[C@H](CC(C)C)C(=O)N(C)[C@H](CC(C)C)C(=O)N[C@H](C)C(=O)O[C@@H](C(C)C)C(=O)N1C [Example 5, cyclo-{(3R,4R,5S)-4-(hydroxy)-3-methyl-5-(methylamino)-1-N-[methyl-(2-methyl-2H-pyrazol-3-ylmethyl)-amino]-hexanoic acid-Thr-Sar-MeLeu-Leu-MeLeu-Ala-D-Hiv-MeLeu-Leu-MeVal}] (cyclo([Hiv][dNMeL][dL][dNMeV][X7][d(aThr)][Sar][NMeL][dL][dNMeL][dA])) | – | – | – | 50 to 75 µM (≈ 67.2 to 101 µg/mL) | 1 to 25 nM | 1 to 25 nM
CC(C)C[C@@H]1C(=O)N[C@H](CC(C)C)C(=O)N(C)[C@H](C(C)C)C(=O)N(C)[C@H]([C@H](O)[C@H](C)CCN(C)Cc2nnn[nH]2)C(=O)N[C@H]([C@@H](C)O)C(=O)N(C)CC(=O)N(C)[C@@H](CC(C)C)C(=O)N[C@H](CC(C)C)C(=O)N(C)[C@H](CC(C)C)C(=O)N[C@H](C)C(=O)O[C@@H](C(C)C)C(=O)N1C [Example 6, cyclo-{(3R,4R,5S)-4-(hydroxy)-3-methyl-5-(methylamino)-1-N-[methyl-(1H-tetrazol-5-ylmethyl)-amino]-hexanoic acid-Thr-Sar-MeLeu-Leu-MeLeu-Ala-D-Hiv-MeLeu-Leu-MeVal}] (cyclo([Hiv][dNMeL][dL][dNMeV][X30][d(aThr)][Sar][NMeL][dL][dNMeL][dA])) | 25 to 50 µM (≈ 33.3 to 66.6 µg/mL) | 1 to 25 nM | 1 to 25 nM | – | – | –

Now from value to compound:

solubility at 18 h ([1]; pH 7.8) | Ki (cyclophilin A (Cyp A)) | Ki (cyclophilin D (Cyp D)) | solubility at 18 h [1, 2] | Ki (cyclophilin A (Cyp A); [3]) | Ki (cyclophilin D (Cyp D); [4]) | SMILES
50 to 75 µM (≈ 66 to 99.1 µg/mL) | 25 to 100 nM | 1 to 25 nM | – | – | – | CO[C@H](C)[C@H]1NC(=O)[C@@H]([C@H](O)[C@H](C)CCN2CCOCC2)N(C)C(=O)[C@@H](C(C)C)N(C)C(=O)[C@@H](CC(C)C)NC(=O)[C@@H](CC(C)C)N(C)C(=O)[C@H](C(C)C)OC(=O)[C@@H](C)NC(=O)[C@@H](CC(C)C)N(C)C(=O)[C@@H](CC(C)C)NC(=O)[C@H](CC(C)C)N(C)C(=O)CN(C)C1=O (stereo in doubt) [Example 7, cyclo-[(3R,4R,5S)-4-(hydroxy)-3-methyl-5-(methylamino)-1-N-morpholino-hexanoic acid-(O-methyl-Thr)-Sar-MeLeu-Leu-MeLeu-Ala-D-Hiv-MeLeu-Leu-MeVal]]
– | – | – | > 100 µM | 25 to 100 nM | 1 to 25 nM | CC(C)C[C@@H]1C(=O)N[C@H](CC(C)C)C(=O)N(C)[C@H](C(C)C)C(=O)N(C)[C@H]([C@H](O)[C@H](C)CCN(C)CC2COCCO2)C(=O)N[C@H]([C@@H](C)O)C(=O)N(C)CC(=O)N(C)[C@@H](CC(C)C)C(=O)N[C@H](CC(C)C)C(=O)N(C)[C@H](CC(C)C)C(=O)N[C@H](C)C(=O)O[C@@H](C(C)C)C(=O)N1C (stereo partly drawn) [Example 8, cyclo-{(3R,4R,5S)-4-(hydroxy)-3-methyl-5-(methylamino)-1-N-([1,4]dioxan-2-ylmethyl-methyl-amino)-hexanoic acid-Thr-Sar-MeLeu-Leu-MeLeu-Ala-D-Hiv-MeLeu-Leu-MeVal}] (cyclo([Hiv][dNMeL][dL][dNMeV][X24][d(aThr)][Sar][NMeL][dL][dNMeL][dA]))
– | – | – | 10 to 25 µM (≈ 13.7 to 34.3 µg/mL) | 1 to 25 nM | 1 to 25 nM | CC(C)C[C@@H]1C(=O)N[C@H](CC(C)C)C(=O)N(C)[C@H](C(C)C)C(=O)N(C)[C@H]([C@H](O)[C@H](C)CCN2CCCC(C(F)(F)F)C2)C(=O)N[C@H]([C@@H](C)O)C(=O)N(C)CC(=O)N(C)[C@@H](CC(C)C)C(=O)N[C@H](CC(C)C)C(=O)N(C)[C@H](CC(C)C)C(=O)N[C@H](C)C(=O)O[C@@H](C(C)C)C(=O)N1C (stereo partly drawn) [Example 9, cyclo-{(3R,4R,5S)-4-(hydroxy)-3-methyl-5-(methylamino)-1-N-[3-trifluoromethyl-piperidinyl]-hexanoic acid-Thr-Sar-MeLeu-Leu-MeLeu-Ala-D-Hiv-MeLeu-Leu-MeVal}] (cyclo([Hiv][dNMeL][dL][dNMeV][X19][d(aThr)][Sar][NMeL][dL][dNMeL][dA]))
– | 100 to 300 nM | 25 to 100 nM | – | – | – | CC(C)C[C@@H]1C(=O)N[C@H](CC(C)C)C(=O)N(C)[C@H](C(C)C)C(=O)N(C)[C@H]([C@H](O)[C@H](C)CCN2CCN(C)CC2)C(=O)N[C@H]([C@@H](C)O)C(=O)N(C)CC(=O)N(C)[C@@H](CC(C)C)C(=O)N[C@H](CC(C)C)C(=O)N(C)[C@H](CC(C)C)C(=O)N[C@H](C)C(=O)O[C@@H](C(C)C)C(=O)N1C [Example 32, cyclo-[(3R,4R,5S)-4-(hydroxy)-3-methyl-5-(methylamino)-1-N—(N′-methylpiperazine)-hexanoic acid-Thr-Sar-MeLeu-Leu-MeLeu-Ala-D-Hiv-MeLeu-Leu-MeVal]] (cyclo([Hiv][dNMeL][dL][dNMeV][X34][d(aThr)][Sar][NMeL][dL][dNMeL][dA]))

Reference: patent US9382295B2, “Cyclic depsipeptide compounds and their uses” (Cypralis Limited, priority 2012, dated 2016)
